Results as given in paper PMC12655551, “Design, Synthesis, and Evaluation of Pyrrole-Based Selective MAO-B Inhibitors with Additional AChE Inhibitory and Neuroprotective Properties Identified via Virtual Screening” (Pharmaceuticals, 2025).

Assays:
BChE = biological target: T1, BChE (Equus caballus, UniProt P81908); test: biochemical; conditions: for IC50: means ± SD of three experiments, read-out: BChE IC50; for inhibition at 200 µM: read-out: Inhibition Activity 200 µM BChE
T1 construct: purchased Sigma-Aldrich, Hamburg, Germany; host or cells: equine serum
T1 sequence (P81908 whole entry): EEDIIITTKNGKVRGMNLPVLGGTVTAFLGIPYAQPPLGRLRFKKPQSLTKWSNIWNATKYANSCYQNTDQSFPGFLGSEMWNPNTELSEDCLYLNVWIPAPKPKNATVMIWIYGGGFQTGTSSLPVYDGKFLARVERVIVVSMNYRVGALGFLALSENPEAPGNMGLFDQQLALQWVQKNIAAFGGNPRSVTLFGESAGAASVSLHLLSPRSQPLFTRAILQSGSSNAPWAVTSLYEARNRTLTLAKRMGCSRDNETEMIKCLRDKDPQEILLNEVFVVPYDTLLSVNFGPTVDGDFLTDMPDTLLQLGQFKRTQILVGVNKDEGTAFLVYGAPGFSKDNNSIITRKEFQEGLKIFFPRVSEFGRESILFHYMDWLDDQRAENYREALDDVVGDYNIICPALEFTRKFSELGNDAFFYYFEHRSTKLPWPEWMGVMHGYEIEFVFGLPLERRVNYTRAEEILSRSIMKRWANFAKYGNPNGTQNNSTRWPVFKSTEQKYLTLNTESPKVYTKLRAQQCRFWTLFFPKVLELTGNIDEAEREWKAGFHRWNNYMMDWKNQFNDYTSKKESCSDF
Procedure: (§1) AChE and BChE inhibitory activity of the newly synthesized pyrrole-based compounds was measured using the microplate assay described by Ellman et al. with the modifications added by López et al.. The compounds were tested at concentrations between 0.01 and 200 μM. First, they were dissolved in phosphate buffer (PBS) (8 mM K2HPO4, 2.3 mM NaH2PO4, 0.15 M NaCl, pH 7.5), assisted by the addition of no more than 5% MeOH. Then, they were serially diluted with PBS to provide the concentration range needed. Acetylcholinesterase from Electrophorus electricus and butyrylcholinesterase from equine serum (Sigma-Aldrich, Hamburg, Germany) were used with a substrate solution of 5,5′-dithiobis(2-nitrobenzoic acid) (DTNB) with acetylthiocholine iodide (ATCI) or butyrylthiocholine iodide (BTCI), respectively (0.04 M Na2HPO4, 0.2 mM DTNB, 0.24 mM ATCI or BTCI, pH 7.5). A total of 50 μL of AChE or BChE (0.25 U/mL, in PBS) and 50 μL of the tested compound solution were added to the wells. Incubation of the plates was performed at room temperature for 30 min. Then, 100 μL of substrate solution was added to start the enzymatic reaction. […] Enzyme activity was calculated as an inhibition percentage compared to an assay including buffer instead of an inhibitor.

[1] = biological target: T2, recombinant human MAO-A (hMAOA) (Homo sapiens, UniProt P21397); test: MAO-A inhibition, fluorometric Amplex UltraRed assay; format: biochemical; conditions: for inhibition at 1 µM: 1 µM compound, read-out: Inhibition Activity 1 µM MAO-A; for IC50: means ± SD of three experiments, read-out: MAO-A IC50
T2 sequence (P21397 1-527): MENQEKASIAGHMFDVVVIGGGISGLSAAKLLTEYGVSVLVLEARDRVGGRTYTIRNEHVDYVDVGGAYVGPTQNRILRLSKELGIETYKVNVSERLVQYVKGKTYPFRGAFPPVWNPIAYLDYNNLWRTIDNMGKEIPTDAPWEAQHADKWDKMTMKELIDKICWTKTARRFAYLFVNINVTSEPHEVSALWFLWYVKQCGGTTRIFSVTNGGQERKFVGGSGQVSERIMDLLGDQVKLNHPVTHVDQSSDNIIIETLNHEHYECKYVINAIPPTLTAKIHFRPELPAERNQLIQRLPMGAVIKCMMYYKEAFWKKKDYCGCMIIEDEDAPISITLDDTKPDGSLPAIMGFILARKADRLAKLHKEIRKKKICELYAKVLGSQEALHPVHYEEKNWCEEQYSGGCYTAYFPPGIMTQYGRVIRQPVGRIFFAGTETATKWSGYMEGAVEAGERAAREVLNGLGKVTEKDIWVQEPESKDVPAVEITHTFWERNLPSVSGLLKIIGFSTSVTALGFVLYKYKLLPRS
Procedure: (§2) Monoamine oxidase (MAO) activity for both recombinant human MAO-A (hMAOA) and MAO-B (hMAOB) was assessed using a fluorometric assay based on the Amplex® UltraRed reagent. This method, originally reported by Bautista-Aguilera et al. and later adapted with minor changes by Kasabova-Angelova et al., detects hydrogen peroxide or peroxidase activity present in enzymes or biological samples. In this assay, Amplex® Red reacts in a 1:1 molar ratio with hydrogen peroxide in the presence of peroxidase, producing the red-fluorescent compound resorufin. Due to resorufin’s strong extinction coefficient (58,000 ± 5000 cm^−1·M^−1), measurements could be accurately taken using either fluorometric or spectrophotometric methods. […] The control conditions included the use of purified hMAOA or hMAOB in reaction buffer, enzyme solutions with hydrogen peroxide, and buffer alone. All the test compounds were initially prepared at a 1 µM final concentration. These compounds were combined with either hMAOA or hMAOB and loaded into a 96-well plate (with eight replicates per test compound), followed by incubation for 30 min at 37 °C in the dark. Subsequently, a 50 µL detection mix was added to each well. This mix contained Amplex® Red, horseradish peroxidase (HRP), and tyramine substrate, all prepared in a reaction buffer. As this enzymatic reaction proceeded continuously, the fluorescence signal was recorded every 30 min (at 0, 30, 60, 90, 120, and 150 min) to track enzymatic kinetics.

[2] = biological target: T3, recombinant human MAO-B (hMAOB) (Homo sapiens, UniProt P27338); test: biochemical; format: biochemical; conditions: for inhibition at 1 µM: 1 µM compound
T3 sequence (P27338 1-520): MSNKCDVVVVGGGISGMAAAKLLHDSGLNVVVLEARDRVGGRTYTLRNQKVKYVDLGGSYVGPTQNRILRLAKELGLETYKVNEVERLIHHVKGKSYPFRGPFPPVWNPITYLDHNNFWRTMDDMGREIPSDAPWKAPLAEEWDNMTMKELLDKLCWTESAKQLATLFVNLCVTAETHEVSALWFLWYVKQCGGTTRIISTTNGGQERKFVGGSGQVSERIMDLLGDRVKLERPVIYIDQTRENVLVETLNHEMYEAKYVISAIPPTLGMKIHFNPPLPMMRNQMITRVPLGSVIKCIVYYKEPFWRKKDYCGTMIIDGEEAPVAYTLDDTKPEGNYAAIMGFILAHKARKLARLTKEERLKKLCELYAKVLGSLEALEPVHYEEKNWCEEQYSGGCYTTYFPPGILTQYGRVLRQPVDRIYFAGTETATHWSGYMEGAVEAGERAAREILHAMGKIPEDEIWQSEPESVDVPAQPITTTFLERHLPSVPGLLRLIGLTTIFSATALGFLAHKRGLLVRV
Procedure: as §2

AChE = biological target: T4, AChE (Electrophorus electricus, UniProt O42275); test: biochemical; format: biochemical; conditions: for inhibition at 200 µM: 200 µM compound; for IC50: means ± SD of three experiments
T4 construct: purchased Sigma-Aldrich, Hamburg, Germany
T4 sequence (O42275 24-633): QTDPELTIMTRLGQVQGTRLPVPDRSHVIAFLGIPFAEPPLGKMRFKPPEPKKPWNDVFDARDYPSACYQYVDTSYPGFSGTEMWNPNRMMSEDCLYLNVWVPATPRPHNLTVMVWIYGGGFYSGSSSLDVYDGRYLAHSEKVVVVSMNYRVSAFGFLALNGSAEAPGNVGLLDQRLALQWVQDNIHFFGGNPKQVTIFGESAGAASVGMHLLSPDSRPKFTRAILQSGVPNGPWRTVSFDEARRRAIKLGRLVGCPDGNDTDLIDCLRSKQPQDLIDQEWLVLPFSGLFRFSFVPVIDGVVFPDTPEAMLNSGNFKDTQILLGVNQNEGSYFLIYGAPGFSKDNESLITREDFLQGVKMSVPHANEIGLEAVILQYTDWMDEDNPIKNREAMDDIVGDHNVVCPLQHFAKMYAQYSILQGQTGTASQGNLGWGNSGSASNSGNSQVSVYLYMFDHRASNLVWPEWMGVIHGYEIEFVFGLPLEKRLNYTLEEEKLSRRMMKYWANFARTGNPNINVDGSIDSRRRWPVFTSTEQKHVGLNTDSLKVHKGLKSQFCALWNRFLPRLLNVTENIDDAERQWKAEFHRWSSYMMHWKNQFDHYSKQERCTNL
Procedure: as §1

[3] = means ± SD of three experiments

SMILES | IC50 (BChE) [µM] | inhibition at 200 µM (BChE) [%] | inhibition at 1 µM [1] [%] | IC50 [1] [µM] | inhibition at 1 µM [2] [%] | IC50 [2, 3] [µM] | inhibition at 200 µM (AChE) [%] | IC50 (AChE) [µM] | MAO-B IC50 [2, 3]
Cc1ccc(C)n1-c1ccc(Br)cc1 [EM-DC-4, 1-(4-bromophenyl)-2,5-dimethyl-1H-pyrrole] | > 200 | 0 | 60 ± 6.8 | 0.32 ± 0.1 | 98 ± 7.1 | > 100 | 1.4 ± 0.38 | > 200 | –
Cc1ccc(C)n1-c1ccc(C(=O)O)cc1O [EM-DC-17, 4-(2,5-dimethyl-1H-pyrrol-1-yl)-3-hydroxybenzoic acid] | > 200 | 3.85 ± 2.99 | 99 ± 6.6 | > 100 | 99 ± 7.1 | > 100 | 0 | > 200 | –
Cc1ccc(C)n1C(Cc1ccc(O)cc1)C(=O)O (stereo not shown) [EM-DC-20, 2-(2,5-dimethyl-1H-pyrrol-1-yl)-3-(4-hydroxyphenyl)propanoic acid] | > 200 | 0 | 75 ± 6.4 | 0.6 ± 0.1 | 75 ± 7.1 | 0.62 ± 0.1 | 0 | > 200 | –
Cc1ccc(C)n1CCc1ccc(Cl)cc1 [EM-DC-8, 1-[2-(4-chlorophenyl)ethyl]-2,5-dimethyl-1H-pyrrole] | > 200 | 35.4 ± 2.91 | 99 ± 7.3 | > 100 | 99 ± 7.1 | > 100 | 31.1 ± 2.48 | > 200 | –
Cc1ccc(C)n1C(CO)C(=O)O (stereo not shown) [EM-DC-22, 2-(2,5-dimethyl-1H-pyrrol-1-yl)-3-hydroxypropanoic acid] | > 200 | 0 | 99 ± 7.2 | > 100 | 99 ± 7.1 | > 100 | 0 | > 200 | –
CCC(C)Cn1c(C)ccc1C (stereo not shown) [EM-DC-26, 2,5-dimethyl-1-(2-methylbutyl)-1H-pyrrole] | 106.5 ± 0.7 | 68.2 ± 1.6 | 97 ± 7.1 | > 100 | 97 ± 7.1 | > 100 | 12.8 ± 3.54 | > 200 | –
CCC(C(=O)O)n1c(C)ccc1C (stereo not shown) [EM-DC-21, 2-(2,5-dimethyl-1H-pyrrol-1-yl)butanoic acid] | > 200 | 0 | 99 ± 7.1 | > 100 | 99 ± 7.1 | > 100 | 0 | > 200 | –
COc1ccc(C)cc1-n1c(C)ccc1C [EM-DC-5, 1-(2-methoxy-5-methylphenyl)-2,5-dimethyl-1H-pyrrole] | 73.8 ± 5.96 | 74 ± 1.56 | 98 ± 7.3 | > 100 | 99 ± 7.1 | > 100 | 39.8 ± 2.64 | > 200 | –
Cc1ccc(C)n1-c1ccc(C(=O)O)cc1 [EM-DC-2, 4-(2,5-dimethyl-1H-pyrrol-1-yl)benzoic acid] | 158 ± 11.8 | 57.2 ± 0.58 | 75 ± 6.9 | 0.43 ± 0.1 | 75 ± 7.1 | – | 93.6 ± 4.66 | 0.75 ± 0.06 | –
Cc1ccc(C)n1CCc1ccc(O)cc1 [EM-DC-9, 4-[2-(2,5-dimethyl-1H-pyrrol-1-yl)ethyl]phenol] | 69.5 ± 7.52 | 73.7 ± 4.5 | 98 ± 6.8 | > 100 | 98 ± 7.1 | > 100 | 72.9 ± 3.02 | 76.8 ± 4.68 | –
Cc1cc(-n2c(C)ccc2C)c2ccccc2n1 [EM-DC-13, 4-(2,5-dimethyl-1H-pyrrol-1-yl)-2-methylquinoline] | 10.5 ± 0.17 | 83.81 ± 0.67 | 80 ± 7.1 | 0.38 ± 0.1 | 80 ± 7.1 | 0.41 ± 0.1 | 91.2 ± 1.22 | 3.81 ± 0.26 | –
COc1cc2c(cc1OC)C(=O)C(CC1CCN(Cc3ccccc3)CC1)C2 (stereo not shown) [Donepezil, reference compound] | – | 92.25 ± 0.22 | – | – | – | – | – | – | –
Cc1ccc(C)n1CC(C)c1ccc(O)cc1 (stereo not shown) [EM-DC-11, 4-[1-(2,5-dimethyl-1H-pyrrol-1-yl)propan-2-yl]phenol] | > 200 | 30.6 ± 2.11 | 97 ± 6.9 | > 100 | 97 ± 7.1 | > 100 | 29 ± 2.47 | > 200 | –
Cc1ccc(C)n1CC(O)c1ccc(O)cc1 (stereo not shown) [EM-DC-10, 4-[2-(2,5-dimethyl-1H-pyrrol-1-yl)-1-hydroxyethyl]phenol] | 11.3 ± 0.87 | 87.2 ± 1.6 | 99 ± 6.8 | > 100 | 99 ± 7.1 | > 100 | 60.4 ± 1.05 | 148 ± 5.91 | –
Cc1ccc(C)n1C(Cc1ccc(O)c(O)c1)C(=O)O (stereo not shown) [EM-DC-23, 3-(3,4-dihydroxyphenyl)-2-(2,5-dimethyl-1H-pyrrol-1-yl)propanoicacid] | > 200 | 0 | 98 ± 7.3 | > 100 | 98 ± 7.1 | > 100 | 21.8 ± 2.14 | > 200 | –
Cc1ccc(C)n1-c1ccc2c(c1)OCO2 [EM-DC-6, 1-(2H-1,3-benzodioxol-5-yl)-2,5-dimethyl-1H-pyrrole] | > 200 | 36.3 ± 3.54 | 97 ± 7.1 | > 100 | 98 ± 7.1 | > 100 | 65 ± 1.14 | 128 ± 1.87 | –
Cc1ccc(C)n1CCc1ccccc1 [EM-DC-7, 2,5-dimethyl-1-(2-phenylethyl)-1H-pyrrole] | > 200 | 43.9 ± 1.7 | 80 ± 7.2 | 0.51 ± 0.1 | 75 ± 7.1 | 0.49 ± 0.1 | 11.9 ± 2.33 | > 200 | submicromolar range
COc1ccc2c3c1O[C@H]1C[C@@H](O)C=C[C@@]31CCN(C)C2 [Galanthamine, reference compound] | – | 89.16 ± 0.44 | – | – | – | – | – | – | –
